Experimental data reported in patent publication US9040249B2, “Pan-kinase activation and evaluation of signaling pathways” (Beckman Coulter, Inc., priority 2008, dated 2015).
Values joined by “and” are separate entries in the source; they are usually repeats but may differ in a detail not shown here. Equal entries are not always repeated. “Also recorded” adds a separate entry of the source.

Tests used:
[1] = system: ribosomal S6 protein; assay: Inhibition of S6 activation by LPS with ERK and PI3K inhibitors; assay type: cell-based, human
Description: (§1) 100 μl of blood was inserted into the bottom of 12×75 mm tubes. Blood was removed from the side of tube with cotton swab to eliminate potential contamination of the sample with unfixed cells. 100 ng lipopolysaccharide (LPS) was added to activation tubes (or equal volume of phosphate buffered saline (PBS) to control tubes) and the tubes were placed in 37° C. water bath.
(§2) After various incubation times (e.g. 1 minute to 60 minutes), the first tube was removed from the incubator and 65 μl 10% formaldehyde was added into tube. The tubes were mixed and placed in a rack and incubated at room temperature. After exactly a 10 minute incubation with formaldehyde, 1 ml Lyse/Permeabilization Buffer ([…] TRITON X-100 10% stock solution to 500 ml with PBS. 0.1165% TRITON X-100 solution at room temperature in the dark and pre-heated to 37° C. immediately prior to use.) was added to each tube, vortexed vigorously and returned to the rack. The tubes were incubated at room temperature for 15 minutes.
2 ml cold Wash Buffer (PBS (w/o Ca++/Mg++) with 4% FBS, sterile filtered (0.22 um filter)) (4° C.) was added to each tube. All tubes were centrifuged at 500×g for 4 minutes. […]
Antibodies and cold Wash Buffer were added to a final volume of 100 μl and incubated at room temperature for 30 minutes. […] Cells were resuspended in 1 ml Wash Buffer, vortexed and analyzed on the flow cytometer. […]

[2] = system: SAPK/JNK; assay: LPS activation of MAPK signaling in whole blood monocytes, flow cytometry (P-SAPK/JNK); assay type: cell-based, human
Description: as §1, §2
(§3) 2 ml cold Wash Buffer (PBS (w/o Ca++/Mg++) with 4% FBS, sterile filtered (0.22 um filter)) (4° C.) was added to each tube. All tubes were centrifuged at 500×g for 4 minutes. Tubes were removed from the centrifuge and supernate fluid was aspirated. 1 ml of cold (4° C.) 50% methanol was added to each tube and vortexed. All tubes were then incubated on ice for 10 minutes.
(§4) The tubes were then centrifuged at 500×g for 4 minutes and the supernate fluid was aspirated. 2 ml cold Wash Buffer (4° C.) was added to each tube. All tubes were centrifuged at 500×g for 4 minutes. Tubes were removed from the centrifuge and supernate fluid was aspirated.
(§5) Antibodies and cold Wash Buffer were added to a final volume of 100 μl and incubated at room temperature for 30 minutes. 2 ml cold Wash buffer was added, mixed and centrifuged. Cells were resuspended in 1 ml Wash Buffer, vortexed and analyzed on the flow cytometer.
(§6) In this study, a simultaneous measurement of four different signaling phospho-epitopes, which include P-ERK, P-p38 MAP Kinase, P-SAPK (Stress-Activated Protein Kinase), and P-S6 ribosomal protein (a measurement of new polypeptide synthesis), was conducted. This assay employed a measurement of the time course of LPS activation, in both “naive” whole blood, and whole blood samples previously exposed to LPS activation (“re-activated”). This assay also employed the fixation and permeabilization approach described above to measure both cell surface (CD14 to identify monocytes) and cytoplasmic or nuclear localized phospho-epitopes (P-ERK, P-p38, P-SAPK, and P-S6). This assay also employed an internal negative control to analyzing the data, relying on populations, rather than isotype controls, and measuring changes in MFI (mean fluorescence intensity) rather than percent positive.

[3] = system: ERK; conditions: cited from earlier work
[4] = system: ribosomal S6 protein; assay: LPS activation of ribosomal S6 protein in whole blood monocytes, flow cytometry (P-S6); assay type: cell-based, human
Description: as §1, §2, §3, §4, §5, §6

[5] = system: ERK; assay: LPS activation of MAPK signaling in whole blood monocytes, flow cytometry (P-ERK); assay type: cell-based, human
Description: as §1, §2, §3, §4, §5, §6

[6] = system: p38 MAP Kinase; assay: LPS activation of MAPK signaling in whole blood monocytes, flow cytometry (P-p38); assay type: cell-based, human
Description: as §1, §2, §3, §4, §5, §6

[7] = normal whole blood, LPS 10 minutes at 37° C.
[8] = re-stimulation after 60 minutes, up to 2 hours
[9] = up to 120 minutes post stimulation
[10] = normal samples not previously exposed to LPS
[11] = previously LPS-stimulated, 0 time of re-exposure

For `N#CC(=C(/N)Sc1ccccc1N)/C(C#N)=C(\N)Sc1ccccc1N` [U0126], the “inhibition of S6 activation by LPS” value ([1]; ERK inhibitor U0126 and PI3K inhibitor Ly294002 both present) was “inhibition of phosphorylation was seen; also recorded: Complete inhibition” and the “inhibition of S6 activation by LPS” value ([1]; inhibitor alone) was “Only inhibition of both pathways leads to complete inhibition”.
For lipopolysaccharide [LPS], the “JNK pathway activity after 60 minutes of LPS activation” value ([2]; 60 minutes) was “decreased, but do not return to baseline”, the “time of P-SAPK peak after initial LPS stimulation” value ([2]; initial stimulation) was 15 min and the “activated JNK in CD14+ monocytes” value [2, 7] was “all CD14+ monocytes have activated p-38, JNK, and ERK”. The “JNK activity when additional LPS is added” value [2, 8] was “no additional increase in any MAPK activity”, the “P-SAPK levels after initial LPS stimulation” value [2, 9] was “do not return to basal levels” and the P-SAPK positive monocytes [2, 9] was 30-40%. For the same compound, the “percent of monocytes expressing phospho-ERK after LPS treatment in vitro” value ([3]; normal controls, 15 min after LPS addition, 35% without LPS) was 58%, the “increase in P-ERK monocytes following LPS addition in vitro” value ([3]; presumably septic patients, 25% before LPS) was “less than 10%” and the “peak activation of S6 relative to other pathway proteins” value ([4]; LPS stimulated monocytes) was “later than other MAPK pathway proteins”. For the same compound, the “time of P-S6 peak after LPS stimulation” value ([4]; normal individuals, primary stimulation) was 15 to 30 min and 15 to 60 min, the “persistence of P-S6 levels following LPS stimulation” value ([4]; primary stimulation) was > 120 min and the “MFI of the P-S6 population following LPS re-stimulation” value ([4]; re-stimulation) was “little change in the MFI”. The “ERK pathway activity after 60 minutes of LPS activation” value ([5]; 60 minutes) was “decreased, but do not return to baseline”, the “early P-ERK peak, time after LPS addition” value [5, 10] was 1 to 4 min and the “second P-ERK peak, time after LPS stimulation” value [5, 10] was 10 to 15 min. For the same compound, the “activated ERK in CD14+ monocytes” value [5, 7] was “all CD14+ monocytes have activated p-38, JNK, and ERK”, the “ERK activity when additional LPS is added” value [5, 8] was “no additional increase in any MAPK activity” and the “ERK activation six minutes after LPS activation” value ([5]; six minutes, 37° C.) was “initial ERK activation declines”. The “MFI of P-ERK upon re-exposure to LPS” value ([5]; up to 90 minutes after LPS re-stimulation, versus 0 time control) was “does not change significantly above the 0 time control”, the “earliest ERK activation, time following LPS stimulation” value ([5]; whole blood monocytes, 37° C., before JNK or p38 activation) was 2 min and the “percentage of P-p38 positive monocytes” value ([6]; 15 min after LPS re-exposure) was 46%. The “aggregate MFI of P-p38” value ([6]; 15 minutes after re-exposure to LPS) was 5.5, the “p38 pathway activity after 60 minutes of LPS activation” value ([6]; 60 minutes) was “decreased, but do not return to baseline” and the “monocytes retaining the same P-p38 MFI as in the 15 min primary response” value ([6]; 120 min after primary LPS stimulation) was “Roughly 50%”. For the same compound, the “monocyte population showing significant increase in P-p38 MFI” value ([6]; after primary LPS stimulation) was “about 100%”, the “levels of P-p38 after primary LPS stimulation” value ([6]; even after periods of 120 min) was “do not return to basal levels” and the “activated p38 in CD14+ monocytes” value [6, 7] was “all CD14+ monocytes have activated p-38, JNK, and ERK”. For the same compound, the “aggregate MFI of P-p38” value [6, 11] was 5.0, the “percentage of P-p38 positive monocytes” value [6, 11] was 40% and the “time to maximal P-p38 MFI after LPS stimulation” value ([6]; primary LPS stimulation) was 15 min. For the same compound, the “P-p38 MFI peak time after restimulation with LPS” value ([6]; re-stimulation) was 15 to 20 min and the “p38 activity when additional LPS is added” value [6, 8] was “no additional increase in any MAPK activity”.
